≈ marks a conversion by molar mass, not a printed value. Where “and” joins values, the source holds several entries; their conditions need not be identical. Equal entries are not always repeated. Structures can show the parent of a compound that is named as a salt.

The nature of data set [1]: Aqueous solubility of ETP and ETP/LMC complexes. The class given is physicochemical. The conditions noted are these: water; mean ± SD, n=6. The source says: Supplement IDRD_A_1837293_SM2931.docx, table 3: Table S3. Aqueous solubilities of a physical complex of ETP and LMC and effective permeabilities of ETP and ETP/LMC or ETP and ETP/LMC-loaded nanoemulsion. | column: Aqueous solubility (μg/mL)

Data set [2] is described as follows: Parallel artificial membrane permeability assay (effective permeability, Pe). The class given is in vitro ADME. The conditions noted are these: PAMPA; Table S3: after dissolution of ETP or ETP/LMCs in water, or incorporation into the nanoemulsion; mean ± SD, n=6. As to the method: A parallel artificial membrane permeability assay was performed using pre-coated 96-well plates designed for this assay (Corning, Corning, NY) according to the manufacturer’s instructions. Briefly, 300 µL PBS (pH 6.8) was added to the receiver plate, and 200 µL of each formulation diluted in PBS (pH 6.8) containing 100 µg/mL ETP was added to each well of the filter plate. The plates were then assembled, and the system was incubated at room temperature for five hours without shaking. After five hours, the plates were disassembled, and samples were withdrawn from both the donor and acceptor plates. The concentration of ETP that permeated through the artificial membrane was measured by HPLC at 254 nm. […] The effective permeability (Pe) of each sample was calculated according to the formula: (1) Pe=−ln[1−CA(t)/Cequilibrium]/[A ×(1/VD+1/VA)×t] where Pe is the permeability (cm/s), A is the effective permeation area (0.288 cm^2), VD is the volume of the donor well (0.2 mL), VA is the volume of the acceptor well (0.3 mL), t is the total incubation time in s, CA(t) is the concentration of the drug in the acceptor well at time t, and Cequilibrium represents [CD(t) × VD + CA(t) × VA]/(VD + VA), where CD(t) denotes the concentration of the drug in the donor well at time t.
(In PAMPA a lipid-coated filter parts donor from acceptor wells.)

The nature of data set [3]: Droplet size, polydispersity index and zeta potential by dynamic laser light scattering. The conditions noted are these: mean ± SD, n=6. The class given is physicochemical. As to the method: The average droplet size, polydispersity index (PDI), and zeta potential of ELNE were determined using a dynamic laser light scattering analyzer (Malvern Zetasizer Nano ZS90; Malvern Instruments, Malvern, UK). Morphological evaluation of the selected ELNE was performed by transmission electron microscopy (JEM-200; JEOL, Tokyo, Japan).

In general, solubility refers to the dissolved amount per volume that the medium holds. Read a high solubility as a readily soluble substance. In general, Papp refers to a coefficient for how fast a substance crosses the barrier. On to `COc1cc([C@@H]2c3cc4c(cc3[C@@H](O[C@@H]3O[C@@H]5CO[C@@H](C)O[C@H]5[C@H](O)[C@H]3O)[C@H]3COC(=O)[C@H]23)OCO4)cc(OC)c1O` [ETP, etoposide], for which the solubility in data set [1] turned out to be 230 ± 29.4 µg/mL (≈ 391 µM). The same compound yielded a Papp at 5 h, 100 µg/mL in data set [2] of 0.251 ± 0.063 ×10⁻⁶ cm/s.
Regarding `CCCCCCCCCC(=O)OC[C@H](COP(=O)(O)O)OC(=O)CCCCCCCCC` [PA, 1,2-didecanoyl-sn-glycero-3-phosphate (sodium salt)], in data set [3], the Particle size came out at 276 ± 3.67 nm and the Polydispersity index was 0.330 ± 0.008.
`COC(=O)C(CCCCN)NC(=O)CCC(C)C1CCC2C3CCC4CC(O)CCC4(C)C3CC(O)C12C` (stereo not drawn) [DCK, N^α-deoxycholyl-l-lysyl-methylester]: in data set [3], the Particle size stood at 263 ± 42.4 nm; the Polydispersity index is recorded as 0.717 ± 0.107; the Zeta potential was 29.4 ± 0.57 mV and 29.4 ± 0.576 mV.

The values are drawn from paper PMC7594851, “Enhanced oral bioavailability of an etoposide multiple nanoemulsion incorporating a deoxycholic acid derivative–lipid complex” (Drug Delivery, 2020).
